In patent US8158785B2, “5,7-disubstituted[1.3]thiazolo [4,5-D] pyrimidin-2(3H)-amine derivatives and their use in therapy” (AstraZeneca AB, priority 2006, dated 2012):
pKi: −log10 of the molar value.

These molecules were tested against T1, hCX3CR1 (Homo sapiens, UniProt P49238) (assay: in vitro hCX3CR1 binding assay ([125I]-fractalkine competition binding, membranes)). Details: competition with 10 pM [125I]-fractalkine, membranes of HEKS 293 cells expressing hCX3CR1, 25° C., 24 h.
T1 construct: expressed in transfected cells; host or cells: HEKS 293 (human embryonic kidney suspension) cells stably expressing chimeric G-protein Gαqi5
T1 sequence (P49238 1-355): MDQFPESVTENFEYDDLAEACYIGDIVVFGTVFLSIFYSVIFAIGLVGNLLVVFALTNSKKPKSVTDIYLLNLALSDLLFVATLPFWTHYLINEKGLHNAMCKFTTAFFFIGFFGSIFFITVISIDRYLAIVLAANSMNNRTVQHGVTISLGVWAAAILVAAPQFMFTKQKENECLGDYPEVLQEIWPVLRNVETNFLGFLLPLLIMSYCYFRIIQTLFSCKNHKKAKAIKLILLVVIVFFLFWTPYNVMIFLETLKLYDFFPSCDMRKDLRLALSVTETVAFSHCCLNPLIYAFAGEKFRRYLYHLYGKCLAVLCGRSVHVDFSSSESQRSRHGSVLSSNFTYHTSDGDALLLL
Description: The complete human CX3CR1 cDNA (GenBank accession number U20350) was extracted from human brain mRNA (Superscript, Life Technologies) and ligated into pCR-Blunt II TOPO vector (InVitrogen). The insert corresponding hCX3CR1 was isolated and further subcloned into pcDNA3.1zeo. Plasmid DNA was prepared using Plasmid Midi Kit (Qiagen). Using Superfect Transfection Reagent (Qiagen) according to the manufacturer's protocol the expression plasmid for hCX3CR1 was then introduced into human embryonic kidney suspension (HEKS) 293 cell line containing a vector for stable expression of a chimeric G-protein Gαqi5. A stable clone was generated utilizing zeocin (500 μg/mL) and hygromycin (100 μg/mL) selection. For further applications the cells were maintained in Dulbecco's modified Eagle's medium/Ham's nutrient mix F12 (DMEM/F12) containing pyridoxine and supplemented with 10% (v/v) fetal bovine serum, 2 mM L-glutamine, 100 U/ml penicillin and […] streptomycin, 250 μg/mL zeocin and 100 μg/mL hygromycin.
Cells are grown at 37° C. and 5% CO2 and harvested at 60-80% confluence in buffer containing 10 mM Tris-HCl pH 7.4, 5 mM EDTA, 0.1 mg/mL bacitracin. The cells are centrifuged at 300×g for 10 min and the pellet is resuspended in harvesting buffer (10 mM Tris-HCl, pH 7.4, 5 mM ethylenediaminetetra-aceticacid (EDTA) and 0.1 mg/mL bacitracin), pooled and homogenised using a Dounce homogeniser. The homogenate is centrifuged in 48000×g for 10 min and resuspended in harvesting buffer using Ultra-Turrax T8. Membrane aliquots are stored at −80° C. Protein concentration was determined in microtiter plates as described by Harrington (1990, Anal. Biochem. 186, 285-287).
Competition binding studies of [^125I]fraktalkine were performed in 2 mL 96-deep-well plates (Beckman, Germany) in a total volume of 1000 μL/well. Each well contained 10 pM [^125I]-fractalkine and membrane equivalent to receptor concentration of 1 pM in assay buffer (50 mM Hepes-KOH, pH 7.4, 10 mM MgCl2, 1 mM EDTA, 0.1% (w/v) gelatine). Ten concentrations (2 points/log unit) of the test compounds were pre-dissolved in DMSO and added to reach a final concentration of 1% (v/v) DMSO. The assay was initiated with the addition of membranes and incubated at 25° C. for 24 h. The reactions were stopped by rapid filtration through Whatman GF/B glass fiber filters pretreated with 0.3% polyethylimine and subsequent washing with ice-cold buffer (10 mM Hepes-KOH pH 7.4, 500 mM NaCl) using a Brandel receptor binding harvester. Scintillation cocktail was added and radioactivity was determined in a Packard 2500TR liquid scintillation counter. (Perkin Elmer, USA)

| pKi | SMILES |
| --- | --- |
| 7.46 | CC(C)C[C@H](CO)Nc1nc(S[C@@H](C)c2ccncc2Cl)nc2nc(N)sc12 [Example 9b, (2R)-2-[(2-amino-5-{[(1S)-1-(3-chloropyridin-4-yl)ethyl]thio}[1,3]thiazolo[4,5-d]pyrimidin-7-yl)amino]-4-methylpentan-1-ol] |
| 7.09 | CC(C)C[C@H](CO)Nc1nc(S[C@@H](C)c2cc(C#N)ccn2)nc2nc(N)sc12 [Example 8, 2-{(1S)-1-[(2-Amino-7-{[(1R)-1-(hydroxymethyl)-3-methylbutyl]amino}[1,3]thiazolo[4,5-d]pyrimidin-5-yl)thio]ethyl}isonicotinonitrile] |
| 8.19 | CC(C)C[C@H](CO)Nc1nc(S[C@@H](C)c2ccc(F)cn2)nc2nc(N)sc12 (single isomer, unassigned) [Example 3] |
| 6.83 | CCC[C@H](CO)Nc1nc(S[C@@H](C)c2ccc(Cl)nc2)nc2nc(N)sc12 [Example 7, (2R)-2-[(2-Amino-5-{[(1S)-1-(6-chloropyridin-3-yl)ethyl]thio}[1,3]thiazolo[4,5-d]pyrimidin-7-yl)amino]pentan-1-ol] |
| 6.69 | CCC[C@H](CO)N(C)c1nc(S[C@@H](C)c2ccc(Cl)nc2)nc2nc(N)sc12 [Example 6, (2R)-2-[(2-amino-5-{[(1S)-1-(6-chloropyridin-3-yl)ethyl]thio}[1,3]thiazolo[4,5-d]pyrimidin-7-yl)(methyl)amino]pentan-1-ol] |
| 7.64 | CC(C)C[C@H](CO)Nc1nc(S[C@@H](C)c2ncccc2F)nc2nc(N)sc12 [Example 5, (2R)-2-[(2-Amino-5-{[(1S)-1-(3-fluoropyridin-2-yl)ethyl]thio}[1,3]thiazolo[4,5-d]pyrimidin-7-yl)amino]-4-methylpentan-1-ol] |
| 8.21 | CC(C)C[C@H](CO)Nc1nc(S[C@@H](C)c2ccc(Cl)cn2)nc2nc(N)sc12 [Example 2, (2R)-2-[(2-Amino-5-{[(1S)-1-(5-chloropyridin-2-yl)ethyl]thio}[1,3]thiazolo[4,5-d]pyrimidin-7-yl)amino]-4-methylpentan-1-ol] |
| 7.68 | CC(C)C[C@H](CO)Nc1nc(SC(C)c2ccc(F)cn2)nc2nc(N)sc12 (mixture of isomers) [Example 1, (2R)-2-[(2-Amino-5-{[1-(5-fluoropyridin-2-yl)ethyl]thio}[1,3]thiazolo[4,5-d]pyrimidin-7-yl)amino]-4-methylpentan-1-ol] |
